Laboratory results from US10287267B2, “Isoquinolin-3-yl carboxamides and preparation and use thereof” (Samumed, LLC, priority 2016, dated 2019).
Read-outs that look alike come from different tables or passages of the source.

Legend:
recombinant GSK3β kinase = recombinant GSK3β kinase (Homo sapiens (Human), UniProt P49841); assay: GSK3β kinase assay (Ser/Thr 09 peptide Z-lyte FRET); type: biochemical; settings: 46 μM ATP, 1 h room temperature;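 note: kinase activity read as coumarin to fluorescein emission ratio, 11-point threefold dilutions from 10 µM to 0.0003 µM in duplicate, unphosphorylated and phosphorylated peptide as 0% and 100% controls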
[1] = tested on: Wnt pathway (Sp5-Luc reporter, TCF/LEF binding sites) in SW480 colon carcinoma cells; assay: Screening assay for Wnt activity: Sp5-Luc reporter gene assay; type: cell-based, human; settings: Homo sapiens; for inhibition at 10 µM: SW480, read-out: percent inhibition at 10 μM; for EC50: Sp5-Luc reporter, SW480 cells, 36 to 48 hours;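 for all read-outs here: firefly luciferase luminescence read in stably transduced SW480 cells carrying the Sp5 promoter reporter with eight TCF/LEF sites, compounds given in 0.1% DMSO final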
Description: The screening assay for Wnt activity is described as follows.
Following incubation, 15 μl of BriteLite Plus luminescence reagent (Perkin Elmer) was added to each well of the 384-well assay plates. The plates were placed on an orbital shaker for 2 min and then luminescence was quantified using the Envision (Perkin Elmer) plate reader.

[2] = tested on: α-smooth muscle actin (αSMA) positive LL29 cells; assay: Inhibition of fibrotic process: αSMA in TGF-β1 treated primary human fibroblasts from IPF patients; type: cell-based; settings: Homo sapiens, Fibroblast; for EC50: 96 h, Table 8, LL29 fibroblasts from IPF patients, TGF-β1 20 ng/mL, 4 days, dose-response 10 μM to 0.94 nM; for inhibition at 10 µM: read-out: percent value in parentheses beside EC50 >10 μM;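 for all read-outs here: controls were TGF-β1 stimulated wells with DMSO vehicle (positive) and cells given DMSO alone (negative), cultured in F12 medium with 1% fetal bovine serum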
[3] = tested on: Tau phosphorylation at Ser396 (pSer396); assay: Tau phosphorylation assay (pSer396 ELISA / western blot) in SH-SY5Y cells; type: cell-based, human; settings: Homo sapiens, read-out: pSer396 Tau EC50;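 note: EC50 for reduction of Tau pSer396 in lysed cells, measured by colorimetric ELISA or chemiluminescent western blot, both using the same pSer396 antibody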
[4] = tested on: SW480 colon carcinoma cells; assay: Cell viability assay (CellTiter-Glo); type: cell-based, human; settings: Homo sapiens; for EC50: 96 h, SW480 cells, CellTiter-Glo, four days incubation; for inhibition at 10 µM: SW480, read-out: percent inhibition at 10 μM
IL-6 = IL-6 inhibition in LPS-stimulated human peripheral blood mononuclear cells (HTRF); type: cell-based; settings: Homo sapiens, PBMC; for inhibition at 10 µM: read-out: percent value in parentheses beside EC50 >10 μM; for EC50: Table 9, huPBMCs, LPS 50 ng/mL, 22 hours, dose-response starting from 10 μM;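 for all read-outs here: IL-6 detected by HTRF with an XL665- and Cryptate-labelled anti-IL-6 antibody pair, samples run in duplicate, EC50 obtained from a four-parameter Levenberg-Marquardt curve fit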
Description: After 22 hour incubation, a mixture of anti-IL6 XL665 and anti-IL-6 Cryptate diluted in reconstitution buffer (Catalog #62IL6PEC, Cisbio Inc., Bedford, Mass.) was added to each well. […] All samples were processed in duplicate. […] EC50 was determined using software generated by Dotmatics Limited (Windhill Bishops Stortford Herts, UK) using the Levenberg-Marquardt 4 parameter fitting procedure with finite different gradients.

[5] = target: recombinant DYRK1A kinase (Homo sapiens (Human), UniProt Q13627); assay: DYRK1A kinase assay (Ser/Thr 18 peptide Z-lyte FRET); type: biochemical; settings: 30 μM ATP, 1 h room temperature;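 note: Read-out is the coumarin to fluorescein emission ratio, referenced to unphosphorylated (0%) and phosphorylated (100%) Ser/Thr 18 peptide controls, values from dose-response curves by non-linear regression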
[6] = SH-SY5Y cells, overnight (16-18 h) exposure

Chain of recombinant GSK3β kinase (P49841 whole entry): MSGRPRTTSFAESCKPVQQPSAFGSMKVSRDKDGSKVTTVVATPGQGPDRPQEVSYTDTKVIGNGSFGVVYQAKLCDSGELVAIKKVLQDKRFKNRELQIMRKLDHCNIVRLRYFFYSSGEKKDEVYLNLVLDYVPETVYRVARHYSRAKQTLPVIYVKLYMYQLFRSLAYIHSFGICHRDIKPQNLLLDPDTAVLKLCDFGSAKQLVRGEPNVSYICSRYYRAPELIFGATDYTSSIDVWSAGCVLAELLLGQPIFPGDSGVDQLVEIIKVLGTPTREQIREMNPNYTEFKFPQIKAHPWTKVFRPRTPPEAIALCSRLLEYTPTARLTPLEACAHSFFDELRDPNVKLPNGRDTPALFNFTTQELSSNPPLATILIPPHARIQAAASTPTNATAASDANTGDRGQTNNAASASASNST

| Compound | EC50 (recombinant GSK3β kinase) [nM] | inhibition at 10 µM [1] [%] | EC50 [1] [nM] | EC50 [2] [nM] | EC50 ([3]; SH-SY5Y) [nM] | EC50 [4] [nM] | inhibition at 10 µM [4] [%] | inhibition at 10 µM (IL-6) [%] | EC50 (IL-6) [nM] | EC50 [5] [nM] | inhibition at 10 µM [2] [%] | EC50 [3, 6] [nM] |
| --- | --- | --- | --- | --- | --- | --- | --- | --- | --- | --- | --- | --- |
| Cn1cc(-c2ccc3cnc(NC(=O)C45CCN(CC4)CC5)cc3c2)cn1 [Compound 1071, N-(6-(1-Methyl-1H-pyrazol-4-yl)isoquinolin-3-yl)quinuclidine-4-carboxamide] | 2730 | 43.2 | > 10000 | 712 | 6900 | > 10000 | 26.2 | 8.8 | > 10000 | 16.5 |  |  |
| Cc1nnc(-c2ccc3cnc(NC(=O)CN4CC5CCC(C4)O5)cc3c2)s1 [Compound 1029, 2-(8-Oxa-3-azabicyclo[3.2.1]octan-3-yl)-N-(6-(5-methyl-1,3,4-thiadiazol-2-yl)isoquinolin-3-yl)acetamide] | 18 |  | 3340 | > 10000 |  | > 10000 | 34.6 | 7.3 | > 10000 | 25.7 | 31.8 | 239 |
| CN1CCC(N2CCC(C(=O)Nc3cc4cc(-c5cnn(C)c5)ccc4cn3)CC2)CC1 [Compound 331, 1′-Methyl-N-(6-(1-methyl-1H-pyrazol-4-yl)isoquinolin-3-yl)-[1,4′-bipiperidine]-4-carboxamide] | 55 |  | 2990 | 96 |  | 3120 |  |  | 882 | 1.8 |  | 311 |
| O=C(Nc1cc2cc(-c3cnco3)ccc2cn1)[C@H]1CCCO1 [Compound 974, (R)—N-(6-(Oxazol-5-yl)isoquinolin-3-yl)tetrahydrofuran-2-carboxamide] | 96 |  | 3740 | > 10000 |  | 3160 |  | 45.9 | > 10000 | 13.5 | 49.6 | 2000 |
| Cn1cc(-c2ccc3cnc(NC(=O)[C@H]4CC[C@H](CN5CC(F)C5)CC4)cc3c2)cn1 [Compound 10, trans-4-((3-Fluoroazetidin-1-yl)methyl)-N-(6-(1-methyl-1H-pyrazol-4-yl)isoquinolin-3-yl)cyclohexane-1-carboxamide] | 51 |  | 277 | > 10000 |  | 324 |  |  | 399 | 1.3 | 39.6 | 227 |
| [2H]C([2H])([2H])n1cc(-c2cc(F)c3cnc(NC(=O)CN4CCCCC4)cc3c2)cn1 [Compound 1016, N-(8-Fluoro-6-(1-(methyl-d3)-1H-pyrazol-4-yl)isoquinolin-3-yl)-2-(piperidin-1-yl)acetamide] | 87 |  | 4060 | 2130 |  | 6140 |  | 5.4 | > 10000 | 29.1 |  | 631 |
| O=C(CN1CCOCC1)Nc1cc2cc(-c3cncs3)ccc2cn1 [Compound 773, 2-Morpholino-N-(6-(thiazol-5-yl)isoquinolin-3-yl)acetamide] | 219 |  | 6550 | > 10000 |  | > 10000 | 48.4 |  | 3480 | 3.8 | 30.3 | 2200 |
| O=C(Nc1cc2cc(-c3cnco3)ccc2cn1)C1CCN(C(=O)CN2CCCC2)CC1 [Compound 977, N-(6-(Oxazol-5-yl)isoquinolin-3-yl)-1-(2-(pyrrolidin-1-yl)acetyl)piperidine-4-carboxamide] | 246 |  | 875 | 136 |  | 615 |  |  | 404 | 3.2 |  | 426 |
| Cc1ncc(-c2ccc3cnc(NC(=O)C4(F)CC4)cc3c2)n1C [Compound 376, N-(6-(1,2-Dimethyl-1H-imidazol-5-yl)isoquinolin-3-yl)-1-fluorocyclopropane-1-carboxamide] | 710 |  | 2210 | > 10000 |  | 4200 |  | 11.8 | > 10000 | 5.5 | 21 | 7900 |
| O=C(Nc1cc2cc(-c3cnco3)ccc2cn1)[C@@H]1CCCNC1 [Compound 975, (R)—N-(6-(Oxazol-5-yl)isoquinolin-3-yl)piperidine-3-carboxamide] | 1090 |  | 423 | 138 |  | 334 |  |  | 425 | 12 |  | 4600 |
| C[C@@H]1CCCN1CC(=O)Nc1cc2cc(-c3cnc4n3CCNC4)ccc2cn1 [Compound 1030, (R)-2-(2-Methylpyrrolidin-1-yl)-N-(6-(5,6,7,8-tetrahydroimidazo[1,2-a]pyrazin-3-yl)isoquinolin-3-yl)acetamide] | 390 | 44.8 | > 10000 | 2810 |  | > 10000 | 19.3 | 7.7 | > 10000 | 194 |  | 1200 |
| CC(C)N1CCC(C(=O)Nc2cc3cc(-c4cnn(C)c4)ccc3cn2)CC1 [Compound 75, 1-Isopropyl-N-(6-(1-methyl-1H-pyrazol-4-yl)isoquinolin-3-yl)piperidine-4-carboxamide] | 64 |  | 520 | 148 |  | 1320 |  |  | 806 | 2.6 |  | 227 |
| CN1CCC(F)(C(=O)Nc2cc3cc(-c4cnn(C)c4)ccc3cn2)CC1 [Compound 92, 4-Fluoro-1-methyl-N-(6-(1-methyl-1H-pyrazol-4-yl)isoquinolin-3-yl) piperidine-4-carboxamide] | 361 |  | 1600 | > 10000 |  | 983 |  | 33 | > 10000 | 6.5 | 16.7 | 3900 |
| Cn1cc(-c2ccc3cnc(NC(=O)CC4CNCCO4)cc3c2)cn1 (stereo not drawn) [Compound 349, N-(6-(1-Methyl-1H-pyrazol-4-yl)isoquinolin-3-yl)-2-(morpholin-2-yl) acetamide] | 66 |  | 712 | 145 |  | 704 |  |  | 307 | 6.5 |  | 351 |
| Cn1cc(-c2ccc3cnc(NC(=O)C4CCC(F)(F)CC4)cc3c2)cn1 [Compound 3, 4,4-Difluoro-N-(6-(1-methyl-1H-pyrazol-4-yl)isoquinolin-3-yl) cyclohexanecarboxamide] | 38 |  | 1700 | 103 |  | 2800 |  |  | 792 | 3.7 |  | 288 |
| CN1CC2(CC(C(=O)Nc3cc4cc(-c5cncn5C)ccc4cn3)C2)C1 [Compound 523, 2-Methyl-N-(6-(1-methyl-1H-imidazol-5-yl)isoquinolin-3-yl)-2-azaspiro[3.3] heptane-6-carboxamide] | 42 |  | 683 | > 10000 |  | 447 |  |  | 201 | 2.9 | 32.6 | 2200 |
| Cc1ncc(-c2ccc3cnc(NC(=O)CN4CCOCC4)cc3c2)s1 [Compound 994, N-(6-(2-Methylthiazol-5-yl)isoquinolin-3-yl)-2-morpholinoacetamide] | 110 |  | 7900 | 567 |  | > 10000 | 36.8 | 31.8 | > 10000 | 12.9 |  | 1900 |
| O=C(Nc1cc2cc(-c3cnn(C4CC4)c3)ccc2cn1)C1CCN(CCC(F)(F)F)CC1 [Compound 297, N-(6-(1-Cyclopropyl-1H-pyrazol-4-yl)isoquinolin-3-yl)-1-(3,3,3-trifluoropropyl)piperidine-4-carboxamide] | 155 |  | 4810 | 447 |  | 5720 |  |  | 1170 | 23.7 |  | 1420 |
| Cn1cc(-c2ccc3cnc(NC(=O)[C@H]4CCCN4)cc3c2)cn1 [Compound 320, (R)—N-(6-(1-Methyl-1H-pyrazol-4-yl)isoquinolin-3-yl)pyrrolidine-2-carboxamide] | 10 |  | 1140 | 69 |  | 1780 |  |  | 1260 | 9.9 |  | 280 |
| O=C(Nc1cc2cc(-c3cncs3)ccc2cn1)[C@H]1CC[C@H](CN2CC(F)C2)CC1 [Compound 711, trans-4-((3-Fluoroazetidin-1-yl)methyl)-N-(6-(thiazol-5-yl)isoquinolin-3-yl)cyclohexane-1-carboxamide] | 67 |  | 703 | 540 |  | 706 |  |  | 1080 | 1 |  | 443 |
